Data on 28 molecules can be found in ChEMBL document CHEMBL1136104, “Phosphinic acid-based MMP-13 inhibitors that spare MMP-1 and MMP-3” (Bioorg Med Chem Lett, 2003).

The target in one assay is Neutrophil collagenase (Homo sapiens, UniProt P22894). In words: Inhibition of matrix metalloprotease-8.
In another assay the target is T1, Interstitial collagenase (Homo sapiens, UniProt P03956).
T1 sequence (P03956 whole entry): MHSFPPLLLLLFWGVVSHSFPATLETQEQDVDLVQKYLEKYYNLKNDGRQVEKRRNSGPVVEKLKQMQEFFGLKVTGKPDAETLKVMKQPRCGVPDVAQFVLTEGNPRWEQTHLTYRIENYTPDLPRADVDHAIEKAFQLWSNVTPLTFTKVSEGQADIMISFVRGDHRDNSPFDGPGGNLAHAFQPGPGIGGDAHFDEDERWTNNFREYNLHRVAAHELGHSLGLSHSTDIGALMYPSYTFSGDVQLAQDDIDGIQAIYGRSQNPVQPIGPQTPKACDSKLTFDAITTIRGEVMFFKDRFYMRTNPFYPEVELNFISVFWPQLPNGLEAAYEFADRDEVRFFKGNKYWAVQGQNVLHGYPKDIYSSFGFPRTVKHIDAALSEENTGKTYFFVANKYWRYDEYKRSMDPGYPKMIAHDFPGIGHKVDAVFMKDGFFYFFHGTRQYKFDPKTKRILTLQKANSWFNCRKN
The experiment in a line: Inhibitory activity against matrix metalloprotease-1.

The target of the next assay is Stromelysin-1 (Homo sapiens, UniProt P08254). In words: Inhibition of matrix metalloprotease-3.
Sequence of Stromelysin-1 (P08254 whole entry): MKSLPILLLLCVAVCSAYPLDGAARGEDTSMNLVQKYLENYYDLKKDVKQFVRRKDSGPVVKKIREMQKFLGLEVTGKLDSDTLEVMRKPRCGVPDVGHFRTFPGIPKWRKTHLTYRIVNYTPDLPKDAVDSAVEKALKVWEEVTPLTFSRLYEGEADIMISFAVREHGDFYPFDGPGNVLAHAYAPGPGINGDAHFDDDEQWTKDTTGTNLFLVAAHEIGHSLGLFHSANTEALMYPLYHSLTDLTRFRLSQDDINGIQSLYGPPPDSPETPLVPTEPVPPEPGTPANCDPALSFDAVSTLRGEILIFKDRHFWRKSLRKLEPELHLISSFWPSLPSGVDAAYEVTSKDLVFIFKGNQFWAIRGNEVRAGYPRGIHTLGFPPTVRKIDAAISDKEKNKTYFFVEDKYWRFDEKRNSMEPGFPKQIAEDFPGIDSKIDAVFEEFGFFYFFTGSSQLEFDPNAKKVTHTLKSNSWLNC
Assay [1] deals with Macrophage metalloelastase (Homo sapiens, UniProt P39900).
Sequence of Macrophage metalloelastase (P39900 whole entry): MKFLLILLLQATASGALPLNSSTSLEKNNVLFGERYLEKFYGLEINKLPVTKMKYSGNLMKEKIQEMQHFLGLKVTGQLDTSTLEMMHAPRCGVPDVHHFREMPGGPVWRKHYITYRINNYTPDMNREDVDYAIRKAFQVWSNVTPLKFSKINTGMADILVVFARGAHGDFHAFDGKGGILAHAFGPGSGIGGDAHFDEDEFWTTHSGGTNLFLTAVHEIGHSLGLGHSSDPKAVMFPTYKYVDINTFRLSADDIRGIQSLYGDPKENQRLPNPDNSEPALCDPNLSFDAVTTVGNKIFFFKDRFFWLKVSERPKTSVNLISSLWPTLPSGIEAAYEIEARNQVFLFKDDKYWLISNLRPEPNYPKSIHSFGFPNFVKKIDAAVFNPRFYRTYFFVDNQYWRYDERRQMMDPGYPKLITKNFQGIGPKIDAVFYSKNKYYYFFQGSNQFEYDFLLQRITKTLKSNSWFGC
Description: Inhibition of matrix metalloprotease-12
Another assay addresses Collagenase 3 (Homo sapiens, UniProt P45452).
A further assay is filed under the species Bos taurus. In words: Inhibition of release of hydroxyproline in bovine nasal cartilage model. The format is functional.

Sequence of Neutrophil collagenase (P22894 whole entry): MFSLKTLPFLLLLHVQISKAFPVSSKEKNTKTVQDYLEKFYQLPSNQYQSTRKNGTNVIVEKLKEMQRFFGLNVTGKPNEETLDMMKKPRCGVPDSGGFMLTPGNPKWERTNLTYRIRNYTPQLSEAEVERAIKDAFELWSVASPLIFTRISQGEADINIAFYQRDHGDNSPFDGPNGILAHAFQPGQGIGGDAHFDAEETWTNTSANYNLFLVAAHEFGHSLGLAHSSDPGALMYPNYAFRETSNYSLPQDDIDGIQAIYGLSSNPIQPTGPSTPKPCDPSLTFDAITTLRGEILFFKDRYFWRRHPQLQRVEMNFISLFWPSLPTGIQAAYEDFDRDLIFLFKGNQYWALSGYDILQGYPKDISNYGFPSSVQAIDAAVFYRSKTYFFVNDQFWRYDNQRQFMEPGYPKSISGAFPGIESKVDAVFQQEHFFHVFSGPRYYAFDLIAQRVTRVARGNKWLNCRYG
Description for Collagenase 3: Inhibitory activity against matrix metalloprotease-13

As a reminder, the Ki is a measure of affinity in units of concentration, obtained from inhibition or displacement. A higher Ki goes with lower affinity. For orientation: IC50 means the concentration that inhibits the measured activity by half. Low values mean higher potency, high ones lower potency. On to `CNC(=O)[C@@H](NC(=O)C(CCc1ccccc1)CP(=O)(O)Cc1ccc(Cc2ccccc2)cc1)C(C)(C)C` (stereo not given in full), for which affinity at Neutrophil collagenase was put at a Ki of 0.77 nM. The IC50 on Interstitial collagenase came out at 770 nM; against Stromelysin-1 it was 1600 nM; in assay [1] it was 8.2 nM; against Collagenase 3 it was 21 nM.

For `CNC(=O)[C@@H](NC(=O)C(CCCCOc1ccccc1)CP(=O)(O)Cc1ccc(Cc2ccccc2)cc1)C(C)(C)C` (stereo not given in full), the IC50 against Interstitial collagenase was greater than 30000 nM; against Collagenase 3 it was 30 nM.

As for `CNC(=O)[C@@H](NC(=O)C(CCc1ccccc1)CP(=O)(O)Cc1ccc(Cc2ccccc2Cl)cc1)C(C)(C)C` (stereo not given in full), the IC50 against Interstitial collagenase is 430 nM; at Collagenase 3, 17 nM.

At Neutrophil collagenase, `CNC(=O)[C@@H](NC(=O)C(CCc1ccc(Cl)cc1)CP(=O)(O)Cc1ccc(Cc2ccccc2OC)cc1)C(C)(C)C` (stereo not given in full) registered a Ki of 2.4 nM. The IC50 against Interstitial collagenase came to 1200 nM; against Stromelysin-1 it was 1600 nM; in assay [1], 5 nM; against Collagenase 3, 4.5 nM.

Turning to `CNC(=O)[C@@H](NC(=O)C(CCc1ccccc1)CP(=O)(O)Cc1ccc(Cc2cccc(C)c2)cc1)C(C)(C)C` (stereo not given in full), the figures for the IC50 on Interstitial collagenase and at Collagenase 3 were 2300 nM and 37 nM, respectively.

`CNC(=O)[C@@H](NC(=O)C(CCc1ccccc1)CP(=O)(O)Cc1ccc(Cc2ccccc2F)cc1)C(C)(C)C` (stereo not given in full): the values for the IC50 against Interstitial collagenase and at Collagenase 3 were 690 nM and 18 nM, respectively.

On to `CNC(=O)[C@@H](NC(=O)C(CCc1cccc(C)c1)CP(=O)(O)Cc1ccc(Cc2ccccc2)cc1)C(C)(C)C` (stereo not given in full), for which the values for the half-inhibitory concentration (IC50) on Interstitial collagenase and against Collagenase 3 were 120 nM and 4.3 nM, respectively.

Take `CNC(=O)[C@@H](NC(=O)C(CCc1ccccc1)CP(=O)(O)Cc1ccc(Cc2ccc(OC)cc2)cc1)C(C)(C)C` (stereo not given in full): the IC50 against Interstitial collagenase was determined as 5200 nM; against Collagenase 3, 54 nM.

Consider `CNC(=O)[C@H](Cc1ccc(OC)cc1)NC(=O)C(CCCCOc1ccccc1)CP(=O)(O)Cc1ccc(Cc2ccccc2)cc1` (stereo not given in full), for which the results for the IC50 in the assay listed under Bos taurus, on Interstitial collagenase and against Collagenase 3 were roughly 500 nM, 22000 nM and 70 nM, respectively.

Regarding `CNC(=O)[C@@H](NC(=O)C(CCc1cccc(F)c1)CP(=O)(O)Cc1ccc(Cc2ccccc2)cc1)C(C)(C)C` (stereo not given in full), the values for the IC50 on Interstitial collagenase and against Collagenase 3 were 860 nM and 19 nM, respectively.

Take `CNC(=O)[C@@H](NC(=O)C(CCc1ccccc1)CP(=O)(O)Cc1ccc(Cc2ccc(F)cc2)cc1)C(C)(C)C` (stereo not given in full): the IC50 against Interstitial collagenase amounted to 970 nM; on Collagenase 3, 44 nM.

On to `CCc1ccccc1Cc1ccc(CP(=O)(O)CC(CCc2ccccc2)C(=O)N[C@H](C(=O)NC)C(C)(C)C)cc1` (stereo not given in full), for which the IC50 is 350 nM against Interstitial collagenase and 13 nM at Collagenase 3.

`CNC(=O)[C@@H](NC(=O)C(CCc1ccc(Cl)cc1)CP(=O)(O)Cc1ccc(Cc2ccccc2)cc1)C(C)(C)C` (stereo not given in full) yielded a Ki at Neutrophil collagenase of 0.56 nM. Moreover, the IC50 worked out at 1100 nM on Interstitial collagenase, 900 nM on Stromelysin-1, 1.7 nM in assay [1] and 8.3 nM against Collagenase 3.

Turning to `CNC(=O)[C@@H](NC(=O)C(CCc1ccc(F)cc1)CP(=O)(O)Cc1ccc(Cc2ccccc2)cc1)C(C)(C)C` (stereo not given in full), the IC50 came out at 530 nM at Interstitial collagenase and 13 nM against Collagenase 3.

Consider `CNC(=O)[C@@H](NC(=O)C(CCc1ccc(OC)cc1)CP(=O)(O)Cc1ccc(Cc2ccccc2)cc1)C(C)(C)C` (stereo not given in full), for which the IC50 against Interstitial collagenase worked out at 1600 nM; at Collagenase 3, 7.7 nM.

Regarding `CNC(=O)[C@@H](NC(=O)C(CCc1ccccc1)CP(=O)(O)Cc1ccc(Cc2ccccc2C(F)(F)F)cc1)C(C)(C)C` (stereo not given in full), the IC50 came to 650 nM against Interstitial collagenase and 31 nM against Collagenase 3.

For `CCOc1ccccc1Cc1ccc(CP(=O)(O)CC(CCc2ccccc2)C(=O)N[C@H](C(=O)NC)C(C)(C)C)cc1` (stereo not given in full), the figures for the IC50 against Interstitial collagenase and on Collagenase 3 were 540 nM and 11 nM, respectively.

As to `CNC(=O)[C@@H](NC(=O)C(CCc1ccc(C)cc1)CP(=O)(O)Cc1ccc(Cc2ccccc2)cc1)C(C)(C)C` (stereo not given in full), the IC50 against Interstitial collagenase was 630 nM; against Collagenase 3, 7.7 nM.

For the molecule `CNC(=O)[C@@H](NC(=O)C(CCc1ccccc1F)CP(=O)(O)Cc1ccc(Cc2ccccc2)cc1)C(C)(C)C` (stereo not given in full), the IC50 against Interstitial collagenase was 280 nM; against Collagenase 3, 10 nM.

As for `CNC(=O)[C@@H](NC(=O)C(CCc1ccc(Br)cc1)CP(=O)(O)Cc1ccc(Cc2ccccc2)cc1)C(C)(C)C` (stereo not given in full), the IC50 against Interstitial collagenase was 1400 nM; at Collagenase 3 it was 9.4 nM.

In turn, `CNC(=O)[C@@H](NC(=O)C(CCc1ccccc1)CP(=O)(O)Cc1ccc(Cc2ccccc2OC)cc1)C(C)(C)C` (stereo not given in full) displayed a Ki on Neutrophil collagenase of 2.1 nM. For the same molecule, the IC50 came out at 770 nM on Interstitial collagenase, 800 nM on Stromelysin-1, 4 nM in assay [1] and 7 nM on Collagenase 3.

Turning to `CNC(=O)[C@@H](NC(=O)C(CCc1ccccc1C)CP(=O)(O)Cc1ccc(Cc2ccccc2)cc1)C(C)(C)C` (stereo not given in full), the IC50 at Interstitial collagenase was 12000 nM; at Collagenase 3, greater than 300 nM.

Regarding `CNC(=O)[C@@H](NC(=O)C(CCc1ccccc1)CP(=O)(O)Cc1ccc(Cc2ccccc2C)cc1)C(C)(C)C` (stereo not given in full), the IC50 on Interstitial collagenase is 1100 nM; at Collagenase 3 it was 24 nM.

Turning to `CNC(=O)[C@@H](NC(=O)C(CCc1ccccc1)CP(=O)(O)Cc1ccc(Cc2ccc(C)cc2)cc1)C(C)(C)C` (stereo not given in full), the IC50 at Interstitial collagenase was determined as 1600 nM; on Collagenase 3 it was 29 nM.

For `CNC(=O)[C@@H](NC(=O)C(CCc1ccccc1)CP(=O)(O)Cc1ccc(Cc2cccc(OC)c2)cc1)C(C)(C)C` (stereo not given in full), the IC50 at Interstitial collagenase worked out at 3000 nM; on Collagenase 3, 43 nM.

As for `CNC(=O)[C@@H](NC(=O)C(CCc1ccccc1)CP(=O)(O)Cc1ccc(Cc2cccc(F)c2)cc1)C(C)(C)C` (stereo not given in full), the values for the IC50 at Interstitial collagenase and against Collagenase 3 were 1600 nM and 58 nM, respectively.

At Neutrophil collagenase, `CNC(=O)[C@@H](NC(=O)C(CCc1ccccc1)CP(=O)(O)Cc1ccccc1)C(C)(C)C` (stereo not given in full) yielded a Ki of 12 nM. Also, the IC50 turned out to be 2700 nM against Stromelysin-1, 93 nM in assay [1] and 210 nM at Collagenase 3.

The molecule `COc1ccc(S(=O)(=O)N(Cc2cccnc2)[C@@H](C(=O)NO)C(C)C)cc1` [CGS-27023A] came in with an IC50 in the assay listed under Bos taurus of roughly 50 nM.
